In patent US9044463B2, “FSH receptor antagonists” (Merck Sharp & Dohme B.V., priority 2011, dated 2015):

target: T1, human FSH receptor (Homo sapiens, UniProt P23945); experiment: Antagonistic activity at the human FSH receptor expressed in CHO cells (CRE-luciferase reporter); type: cell-based; settings: CHO cells stably transfected with human FSH receptor and CRE-luciferase; with 49 μM recFSH; 4 hours incubation; read-out: IC50 (inhibition of recFSH-induced luciferase stimulation)
T1 construct: expressed in transfected cells; host or cells: CHO (Chinese Hamster Ovary) cells, stably transfected; cotransfected with a CRE-luciferase reporter
T1 sequence (P23945 18-695): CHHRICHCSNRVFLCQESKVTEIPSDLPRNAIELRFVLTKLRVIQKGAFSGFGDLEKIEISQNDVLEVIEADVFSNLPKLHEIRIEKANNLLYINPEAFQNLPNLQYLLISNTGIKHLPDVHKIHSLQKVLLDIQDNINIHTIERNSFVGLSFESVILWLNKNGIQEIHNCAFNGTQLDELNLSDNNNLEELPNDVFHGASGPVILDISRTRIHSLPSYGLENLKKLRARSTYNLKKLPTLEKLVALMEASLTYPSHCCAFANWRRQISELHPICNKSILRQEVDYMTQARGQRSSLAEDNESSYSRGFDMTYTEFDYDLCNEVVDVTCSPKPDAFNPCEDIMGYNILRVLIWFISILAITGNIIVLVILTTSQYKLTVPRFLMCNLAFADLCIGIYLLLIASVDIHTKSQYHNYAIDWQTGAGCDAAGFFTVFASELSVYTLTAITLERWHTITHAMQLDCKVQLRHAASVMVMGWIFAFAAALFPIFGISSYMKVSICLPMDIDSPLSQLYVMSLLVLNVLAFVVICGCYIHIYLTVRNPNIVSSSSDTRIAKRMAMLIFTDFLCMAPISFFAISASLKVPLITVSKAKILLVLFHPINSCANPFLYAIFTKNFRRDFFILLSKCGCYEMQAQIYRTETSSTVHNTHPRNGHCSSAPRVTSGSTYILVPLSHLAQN
Procedure: Antagonistic Activity of Compounds at the Human FSH Receptor Expressed in CHO Cells
Antagonistic activity of the compounds at the human FSH receptor was determined in Chinese Hamster Ovary (CHO) cells stably transfected with the human FSH receptor and cotransfected to with a cAMP responsive element (CRE)/promoter directing the expression of a firefly luciferase reporter gene. Binding of the compounds to the Gs protein-coupled FSH receptor will result in an increase of cAMP, which in turn will induce an increased transactivation of the luciferase reporter. The cells (7,500 cells/well of a 384 well plate) were incubated in Dulbecco′ minimal essential F12 modified medium (Invitrogen), supplemented with 1 μg/ml bovine insulin, 5 μg/ml human apo-transferrin, 100 U/ml penicillin G and 100 μg/ml streptomycin with the test compounds (concentration between 0.316 nM and 10.0 μM) in duplicate together with […] recFSH (which, at this concentration in the absence of test compound, induces 80% of the maximal luciferase stimulation) in a humidified atmosphere (95%) at 5-7% CO2 and 37° C. The final concentration of DMSO was 1%. After 4 hours of incubation, plates were allowed to adjust to room temperature for 1 hour. Then, SteadyLite (PerkinElmer) solution was added to the wells and cells were allowed to lyse for at least 1 hour at room temperature. Subsequently, luciferase activity was measured in a luminescence counter. The signal is expressed as counts per second (cps). The IC50 (concentration of test compound causing half-maximal (50%) inhibition of the maximally attainable inhibition of the luciferase stimulation by the compound) and efficacy of the compounds were determined using the software program MathIQ (version 2.3, ID Business Solutions Limited).

| SMILES | IC50 [nM] |
| --- | --- |
| COc1cc2c(c(OC)c1OC)CCc1cc(-c3ccccc3F)c(C(=O)N[C@@H](CO)Cc3c[nH]c4ccccc34)cc1-2 [Example 2, 2-(2-fluorophenyl)-N—((R)-1-hydroxy-3-(1H-indol-3-yl)propan-2-yl)-6,7,8-trimethoxy-9,10-dihydrophenanthrene-3-carboxamide] | < 100 |
| C=CCOc1cc2c(cc1C(=O)N[C@@H](CO)Cc1c[nH]c3ccccc13)-c1cc(OC)c(OC)cc1CC2 [Example 13, (R)-2-(allyloxy)-N-(1-hydroxy-3-(1H-indol-3-yl)propan-2-yl)-6,7-dimethoxy-9,10-dihydrophenanthrene-3-carboxamide] | 100 to 1000 |
| Cc1ccsc1-c1cc2c(cc1C(=O)N[C@@H](CO)Cc1c[nH]c3ccccc13)-c1cc3c(cc1CO2)OCO3 [Example 56, N—((R)-1-hydroxy-3-(1H-indol-3-yl)propan-2-yl)-8,9-(1′,3′-dioxolo)-3-(3-methylthiophen-2-yl)-6H-benzo[c]chromene-2-carboxamide] | < 100 |
| COc1cc2c(cc1OC)-c1cc(C(=O)N[C@@H](CO)Cc3c[nH]c4ccccc34)c(-c3ccccc3F)cc1OC2 [Example 36, 3-(2-fluorophenyl)-N—((R)-1-hydroxy-3-(1H-indol-3-yl)propan-2-yl)-8,9-dimethoxy-6H-benzo[c]chromene-2-carboxamide] | < 100 |
| COc1cc2c(cc1-c1cnn(C)c1)COc1cc(-c3ccccc3F)c(C(=O)N[C@@H](CO)Cc3c[nH]c4ccccc34)cc1-2 [Example 51, 3-(2-fluorophenyl)-N—((R)-1-hydroxy-3-(1H-indol-3-yl)propan-2-yl)-9-methoxy-8-(1-methyl-1H-pyrazol-4-yl)-6H-benzo[c]chromene-2-carboxamide] | < 100 |
| COc1cc2c(cc1OC)-c1cc(C(=O)N[C@@H](CO)Cc3c[nH]c4ccccc34)c(-c3cccc(F)c3F)cc1OC2 [Example 37, 3-(2,3-difluorophenyl)-N—((R)-1-hydroxy-3-(1H-indol-3-yl)propan-2-yl)-8,9-dimethoxy-6H-benzo[c]chromene-2-carboxamide] | < 100 |

More lines, now with the values ahead:

| IC50 [nM] | SMILES |
| --- | --- |
| 100 to 1000 | CC(C)Oc1cc2oc(=O)c3cc4c(cc3c2cc1C(=O)N[C@@H](CO)Cc1c[nH]c2ccccc12)OCO4 [Example 57, N—((R)-1-hydroxy-3-(1H-indol-3-yl)propan-2-v)-8,9-(1′,3′-dioxolo)-3-(3-isopropoxy)-6-oxo-6H-benzo[c]chromene-2-carboxamide] |
| < 100 | COc1cc2c(c(OC)c1OC)CCc1cc(-c3cccs3)c(C(=O)N[C@@H](CO)Cc3c[nH]c4ccccc34)cc1-2 [Example 4, (R)—N-(1-hydroxy-3-(1H-indol-3-yl)propan-2-yl)-6,7,8-trimethoxy-2-(thiophen-2-v)-9,10-dihydrophenanthrene-3-carboxamide] |
| < 100 | COc1cc2c(cc1OC)-c1cc(C(=O)N[C@@H](CO)Cc3c[nH]c4ccccc34)c(OCC3CC3)cc1CC2 [Example 8, (R)-2-(cyclopropylmethoxy)-N-(1-hydroxy-3-(1H-indol-3-yl)propan-2-yl)-6,7-dimethoxy-9,10-dihydrophenanthrene-3-carboxamide] |
| < 100 | COc1cc2c(c(OC)c1OC)CCc1cc(-c3ccccc3)c(C(=O)N[C@@H](CO)Cc3c[nH]c4ccccc34)cc1-2 [Example 1, (R)—N-(1-hydroxy-3-(1H-indol-3-yl)propan-2-yl)-6,7,8-trimethoxy-2-phenyl-9,10-dihydrophenanthrene-3-carboxamide] |
